{"source": "paper PMC12656268", "about": "“Venom Peptides Across Asian and American Tarantulas Utilize Dual Pharmacology to Target Activation and Fast Inactivation of Voltage-Gated Sodium Channels” (Toxins, 2025)", "biological_target": "NaV1.3 (Homo sapiens, UniProt Q9NY46)", "sequence (Q9NY46 whole entry)": "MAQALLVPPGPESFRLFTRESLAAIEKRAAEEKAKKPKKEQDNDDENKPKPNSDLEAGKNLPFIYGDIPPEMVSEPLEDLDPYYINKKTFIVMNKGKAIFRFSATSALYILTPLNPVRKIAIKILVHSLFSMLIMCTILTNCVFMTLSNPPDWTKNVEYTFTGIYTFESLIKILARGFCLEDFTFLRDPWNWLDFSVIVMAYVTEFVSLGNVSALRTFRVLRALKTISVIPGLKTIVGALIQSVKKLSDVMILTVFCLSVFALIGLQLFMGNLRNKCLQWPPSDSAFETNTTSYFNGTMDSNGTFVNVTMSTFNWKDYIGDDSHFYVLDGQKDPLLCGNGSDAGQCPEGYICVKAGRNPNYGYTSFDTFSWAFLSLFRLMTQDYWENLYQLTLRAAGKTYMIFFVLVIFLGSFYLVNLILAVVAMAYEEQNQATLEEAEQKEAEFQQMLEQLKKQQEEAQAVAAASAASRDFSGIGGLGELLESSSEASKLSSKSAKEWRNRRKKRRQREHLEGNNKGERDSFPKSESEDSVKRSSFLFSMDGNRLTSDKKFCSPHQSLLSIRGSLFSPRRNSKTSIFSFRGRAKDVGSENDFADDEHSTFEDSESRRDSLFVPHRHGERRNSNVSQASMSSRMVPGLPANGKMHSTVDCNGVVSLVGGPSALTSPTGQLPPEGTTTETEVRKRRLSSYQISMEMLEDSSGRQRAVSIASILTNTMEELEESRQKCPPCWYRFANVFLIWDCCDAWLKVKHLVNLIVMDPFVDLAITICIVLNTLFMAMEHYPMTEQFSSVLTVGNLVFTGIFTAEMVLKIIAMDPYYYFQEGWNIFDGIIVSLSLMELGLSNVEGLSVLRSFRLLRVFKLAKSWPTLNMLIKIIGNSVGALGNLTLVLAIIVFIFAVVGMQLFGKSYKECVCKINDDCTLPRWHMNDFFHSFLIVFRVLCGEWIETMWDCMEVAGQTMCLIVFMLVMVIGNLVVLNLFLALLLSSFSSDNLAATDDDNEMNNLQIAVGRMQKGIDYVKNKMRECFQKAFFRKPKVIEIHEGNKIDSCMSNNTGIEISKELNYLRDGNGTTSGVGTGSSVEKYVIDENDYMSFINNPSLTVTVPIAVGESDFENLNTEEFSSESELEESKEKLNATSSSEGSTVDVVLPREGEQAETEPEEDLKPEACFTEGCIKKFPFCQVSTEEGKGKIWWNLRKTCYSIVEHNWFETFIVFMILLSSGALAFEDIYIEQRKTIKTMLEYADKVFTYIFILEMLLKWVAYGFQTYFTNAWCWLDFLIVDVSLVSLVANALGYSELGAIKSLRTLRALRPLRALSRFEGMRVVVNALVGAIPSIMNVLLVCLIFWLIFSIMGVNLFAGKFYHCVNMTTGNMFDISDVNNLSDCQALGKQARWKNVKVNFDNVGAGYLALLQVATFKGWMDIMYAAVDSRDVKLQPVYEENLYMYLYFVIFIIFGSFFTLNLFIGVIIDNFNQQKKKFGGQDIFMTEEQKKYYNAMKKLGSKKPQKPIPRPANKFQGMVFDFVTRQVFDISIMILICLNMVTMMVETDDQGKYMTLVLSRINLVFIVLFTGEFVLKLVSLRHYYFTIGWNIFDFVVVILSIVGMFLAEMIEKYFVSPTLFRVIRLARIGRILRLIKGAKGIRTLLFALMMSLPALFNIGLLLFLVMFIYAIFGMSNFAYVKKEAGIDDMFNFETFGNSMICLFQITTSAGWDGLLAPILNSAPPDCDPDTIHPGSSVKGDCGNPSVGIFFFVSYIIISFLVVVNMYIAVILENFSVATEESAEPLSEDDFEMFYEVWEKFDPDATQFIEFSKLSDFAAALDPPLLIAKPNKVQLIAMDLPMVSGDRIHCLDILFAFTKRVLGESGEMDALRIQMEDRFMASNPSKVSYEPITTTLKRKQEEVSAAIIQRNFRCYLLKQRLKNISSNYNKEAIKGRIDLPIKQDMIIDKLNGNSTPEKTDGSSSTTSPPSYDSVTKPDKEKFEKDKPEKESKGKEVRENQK", "sequence (Q07699 19-218, further chain)": "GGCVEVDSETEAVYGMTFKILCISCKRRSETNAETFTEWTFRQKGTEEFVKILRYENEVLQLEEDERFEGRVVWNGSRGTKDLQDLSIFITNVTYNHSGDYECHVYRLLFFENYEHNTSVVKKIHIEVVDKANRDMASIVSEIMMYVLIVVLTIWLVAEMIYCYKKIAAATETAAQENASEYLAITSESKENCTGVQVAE", "experiment": "Voltage dependence of steady-state inactivation and activation, NaV1.3", "format": "cell-based", "method": "The voltage dependence of steady-state activation was assessed by recording sodium currents evoked by depolarizing voltage steps ranging from −110 mV to +80 mV in 5 mV increments. Peak conductance (GNa) was derived using the equation G = I/(V − Vrev), where I denotes the measured current, V the applied membrane potential, and Vrev the sodium reversal potential. To evaluate the voltage dependence of steady-state fast inactivation, a two-pulse protocol was used. Cells were conditioned with 500 ms pre-pulses at potentials between −130 mV and −10 mV (10 mV increments), followed by a 20 ms test depolarization to 0 mV to elicit sodium currents. The steady-state fast inactivation currents were plotted as I/Imax, where I = current value and Imax = highest current value within the experiment. The voltage-dependence of steady-state activation and inactivation were determined either in the absence of peptide or following 5 min exposure to peptide at the respective IC50 concentration at the NaV subtype analyzed to streamline the investigation using an effective single concentration as previously described by us.\nFor calcium influx experiments, bioactivity comparisons between venom fractions and controls were based on the difference between the maximal and minimal fluorescence intensity values obtained from single-replicate assays. Electrophysiological data analysis was conducted using GraphPad Prism (version 8; GraphPad Software, San Diego, CA, USA). Nonlinear regression was applied to fit the concentration–response relationships using a variable Hill slope: log(inhibitor) versus normalized response for determining IC50 values, and log(agonist) versus normalized response for EC50 calculations. Reversibility and dissociation kinetics were analyzed by fitting data with a single-phase exponential decay model, while voltage-dependence of steady-state activation and inactivation parameters were derived from Boltzmann sigmoid fits of normalized conductance (G/Gmax) or current (I/Imax) values to determine the half-activation or half-inactivation voltages (V50). Data are expressed as mean ± SEM, where n represents the number of individual cells analyzed.", "note": "Where “and” joins values, the source holds several entries; their conditions need not be identical. Identical values can stand only once. Positions of bridges follow the written chain, without caps; N, C: chain ends. Residues, ends and D or L forms follow the SMILES beside them.", "data": [{"smiles": "CC(C)C[C@@H]1NC(=O)[C@H](Cc2ccccc2)NC(=O)[C@H](Cc2ccc(O)cc2)NC(=O)[C@H](CCCNC(=N)N)NC(=O)[C@@H](NC(=O)[C@@H](N)CCC(=O)O)CSSC[C@@H]2NC(=O)[C@@H]3CSSC[C@@H](C(=O)N[C@H](C(=O)N[C@@H](Cc4c[nH]c5ccccc45)C(=O)N[C@@H](CC(=O)O)C(=O)N[C@@H](Cc4c[nH]c5ccccc45)C(=O)N[C@H](C(=O)N[C@@H](Cc4ccccc4)C(N)=O)[C@@H](C)O)C(C)C)NC(=O)[C@H](Cc4c[nH]c5ccccc45)NC(=O)[C@H](CCC(N)=O)NC(=O)[C@H](Cc4c[nH]cn4)NC(=O)[C@H](CCCCN)NC(=O)[C@H](CC(N)=O)NC(=O)[C@H](Cc4c[nH]cn4)NC(=O)[C@H](CSSC[C@H](NC(=O)CNC(=O)CNC1=O)C(=O)N[C@@H](CO)C(=O)N[C@@H](CCC(N)=O)C(=O)NCC(=O)N[C@@H](CCC(=O)O)C(=O)N[C@@H](CCCCN)C(=O)N3)NC(=O)[C@H](C(C)C)NC(=O)[C@H](CC(C)C)NC(=O)[C@H](Cc1c[nH]cn1)NC(=O)[C@H](CCC(=O)O)NC2=O", "note": "[sOa1a-NH2] (H-ECRYFLGGCSQGEKCCEHLVCHNKHQWCVWDWTF-NH2; disulfide 2-16, 9-21, 15-28; N-terminus assumed)", "values": [{"measurement": "V50 of steady-state activation in presence of peptide, NaV1.3", "setting": "control V50 = −21 ± 0.4 mV, steps −110 to +80 mV in 5 mV increments, mean ± SEM, 3 to 5 repeats", "result": "−26", "unit": "mV"}, {"measurement": "V50 of steady-state inactivation in presence of peptide, NaV1.3", "setting": "control V50 = −71 ± 0.71 mV, 5 min exposure at IC50 concentration, 23 nM, 500 ms pre-pulses −130 to −10 mV, mean ± SEM, 3 to 5 repeats", "result": "-57 ± 1.4 mV and −57 mV"}, {"measurement": "ΔV50 of steady-state inactivation, NaV1.3", "setting": "peptide vs control, shift to more depolarized potentials, 3 to 5 repeats", "result": 14, "unit": "mV"}, {"measurement": "Shift in voltage of activation, NaV1.3", "setting": "presence of 23 nM sOa1a-NH2", "result": "≤ 5", "unit": "mV"}]}]}
